Reference: PubChem BioAssay (NCI)
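Growth conditions: 96-well plates. Treatment: test compound, 48 hours, 5 concentrations. Analysis: linear interpolation between bracketing concentrations; unreached endpoints set to highest concentration. GI50 = concentration required for 50% inhibition of growth. The concentration for full growth arrest is given as TGI.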

What was measured:
Assay in all cases: DTP human tumour cell line panel, 48 h
786-0 renal = test system: 786-0 renal
A498 renal = test system: A498 renal
A549 NSCLC = test system: A549 NSCLC
ACHN renal = test system: ACHN renal
BT-549 breast = test system: BT-549 breast
CAKI-1 renal = test system: CAKI-1 renal
CCRF-CEM leukemia = test system: CCRF-CEM leukemia
COLO 205 colon = test system: COLO 205 colon
DU-145 prostate = test system: DU-145 prostate
EKVX NSCLC = test system: EKVX NSCLC
HCC-2998 colon = test system: HCC-2998 colon
HCT-116 colon = test system: HCT-116 colon
HCT-15 colon = test system: HCT-15 colon
HL-60(TB) leukemia = test system: HL-60(TB) leukemia
HOP-62 NSCLC = test system: HOP-62 NSCLC
HOP-92 NSCLC = test system: HOP-92 NSCLC
HS 578T breast = test system: HS 578T breast
HT29 colon = test system: HT29 colon
IGROV1 ovarian = test system: IGROV1 ovarian
K-562 leukemia = test system: K-562 leukemia
KM12 colon = test system: KM12 colon
LOX IMVI melanoma = test system: LOX IMVI melanoma
M14 melanoma = test system: M14 melanoma
MALME-3M melanoma = test system: MALME-3M melanoma
MCF7 breast = test system: MCF7 breast
MDA-MB-231 breast = test system: MDA-MB-231 breast
MDA-MB-435 = test system: MDA-MB-435
MOLT-4 leukemia = test system: MOLT-4 leukemia
NCI-H226 lung = test system: NCI-H226 lung
NCI-H23 lung = test system: NCI-H23 lung
NCI-H460 lung = test system: NCI-H460 lung
NCI-H522 lung = test system: NCI-H522 lung
NCI/ADR-RES ovarian = test system: NCI/ADR-RES ovarian
OVCAR-3 ovarian = test system: OVCAR-3 ovarian
OVCAR-4 ovarian = test system: OVCAR-4 ovarian
OVCAR-5 ovarian = test system: OVCAR-5 ovarian
OVCAR-8 ovarian = test system: OVCAR-8 ovarian
PC-3 prostate = test system: PC-3 prostate
RPMI-8226 leukemia = test system: RPMI-8226 leukemia
RXF 393 renal = test system: RXF 393 renal
SF-268 CNS = test system: SF-268 CNS
SF-295 CNS = test system: SF-295 CNS
SF-539 CNS = test system: SF-539 CNS
SK-MEL-2 melanoma = test system: SK-MEL-2 melanoma
SK-MEL-28 melanoma = test system: SK-MEL-28 melanoma
SK-MEL-5 melanoma = test system: SK-MEL-5 melanoma
SK-OV-3 ovarian = test system: SK-OV-3 ovarian
SN12C renal = test system: SN12C renal
SNB-19 CNS = test system: SNB-19 CNS
SNB-75 CNS = test system: SNB-75 CNS
SR leukemia = test system: SR leukemia
SW-620 colon = test system: SW-620 colon
T-47D breast = test system: T-47D breast
TK-10 renal = test system: TK-10 renal
U251 CNS = test system: U251 CNS
UACC-257 melanoma = test system: UACC-257 melanoma
UACC-62 melanoma = test system: UACC-62 melanoma
UO-31 renal = test system: UO-31 renal

## CCCc1cc(O)c2c3c(c(=O)oc2c1)CN(C)CC3
786-0 renal
  GI50: 61.7 µM
  TGI: > 100 µM
A498 renal
  GI50: 15.8 µM
  TGI: 98.5 µM
A549 NSCLC
  GI50: > 100 µM
  TGI: > 100 µM
ACHN renal
  GI50: > 100 µM
  TGI: > 100 µM
BT-549 breast
  GI50: 48.1 µM
  TGI: > 100 µM
CAKI-1 renal
  GI50: > 100 µM
  TGI: > 100 µM
CCRF-CEM leukemia
  GI50: 69.1 µM
  TGI: > 100 µM
COLO 205 colon
  GI50: 40.6 µM
  TGI: > 100 µM
DU-145 prostate
  GI50: > 100 µM
  TGI: > 100 µM
EKVX NSCLC
  GI50: > 100 µM
  TGI: > 100 µM
HCC-2998 colon
  GI50: 30.7 µM
  TGI: 69.7 µM
HCT-116 colon
  GI50: 66.8 µM
  TGI: > 100 µM
HCT-15 colon
  GI50: 39.9 µM
  TGI: > 100 µM
HL-60(TB) leukemia
  GI50: 50.2 µM
  TGI: > 100 µM
HOP-62 NSCLC
  GI50: 67.1 µM
  TGI: > 100 µM
HOP-92 NSCLC
  GI50: 15.7 µM
  TGI: > 100 µM
HS 578T breast
  GI50: 41.3 µM
  TGI: > 100 µM
HT29 colon
  GI50: 39.5 µM
  TGI: > 100 µM
IGROV1 ovarian
  GI50: > 100 µM
  TGI: > 100 µM
K-562 leukemia
  GI50: 31.8 µM
  TGI: > 100 µM
KM12 colon
  GI50: 87.3 µM
  TGI: > 100 µM
LOX IMVI melanoma
  GI50: 76.2 µM
  TGI: > 100 µM
M14 melanoma
  GI50: 32.5 µM
  TGI: > 100 µM
MALME-3M melanoma
  GI50: 35.1 µM
  TGI: > 100 µM
MCF7 breast
  GI50: 44.8 µM
  TGI: > 100 µM
MDA-MB-231 breast
  GI50: 35 µM
  TGI: > 100 µM
MDA-MB-435
  GI50: 43.5 µM
  TGI: > 100 µM
MOLT-4 leukemia
  GI50: 44.3 µM
  TGI: > 100 µM
NCI-H226 lung
  GI50: > 100 µM
  TGI: > 100 µM
NCI-H23 lung
  GI50: 98.9 µM
  TGI: > 100 µM
NCI-H460 lung
  GI50: > 100 µM
  TGI: > 100 µM
NCI-H522 lung
  GI50: 45.1 µM
  TGI: > 100 µM
NCI/ADR-RES ovarian
  GI50: > 100 µM
  TGI: > 100 µM
OVCAR-3 ovarian
  GI50: > 100 µM
  TGI: > 100 µM
OVCAR-4 ovarian
  GI50: 82.8 µM
  TGI: > 100 µM
OVCAR-5 ovarian
  GI50: > 100 µM
  TGI: > 100 µM
OVCAR-8 ovarian
  GI50: > 100 µM
  TGI: > 100 µM
PC-3 prostate
  GI50: > 100 µM
  TGI: > 100 µM
RPMI-8226 leukemia
  GI50: 24.2 µM
  TGI: 91.2 µM
RXF 393 renal
  GI50: 23.1 µM
  TGI: > 100 µM
SF-268 CNS
  GI50: > 100 µM
  TGI: > 100 µM
SF-295 CNS
  GI50: 28.3 µM
  TGI: > 100 µM
SF-539 CNS
  GI50: 43.2 µM
  TGI: > 100 µM
SK-MEL-2 melanoma
  GI50: > 100 µM
  TGI: > 100 µM
SK-MEL-28 melanoma
  GI50: 21.8 µM
  TGI: 67.4 µM
SK-MEL-5 melanoma
  GI50: 19 µM
  TGI: 44.7 µM
SK-OV-3 ovarian
  GI50: 85 µM
  TGI: > 100 µM
SN12C renal
  GI50: > 100 µM
  TGI: > 100 µM
SNB-19 CNS
  GI50: > 100 µM
  TGI: > 100 µM
SNB-75 CNS
  GI50: 22.1 µM
  TGI: > 100 µM
SR leukemia
  GI50: 36.1 µM
  TGI: > 100 µM
SW-620 colon
  GI50: > 100 µM
  TGI: > 100 µM
T-47D breast
  GI50: 37.8 µM
  TGI: > 100 µM
TK-10 renal
  GI50: > 100 µM
  TGI: > 100 µM
U251 CNS
  GI50: 56.4 µM
  TGI: > 100 µM
UACC-257 melanoma
  GI50: 26.1 µM
  TGI: > 100 µM
UACC-62 melanoma
  GI50: 47.2 µM
  TGI: > 100 µM
UO-31 renal
  GI50: 35.8 µM
  TGI: > 100 µM
